Data reported in EP4707280A1, “1,4-CINEOLE DERIVATIVE AND INTERMEDIATE THEREOF, HERBICIDE CONTAINING SAID DERIVATIVE AS ACTIVE INGREDIENT, METHOD FOR USING HERBICIDE, AND METHOD FOR PREPARING AGROCHEMICAL COMPOSITION” (HOKKO CHEMICAL INDUSTRY CO., LTD., priority 2023, dated 2024).
Like-named read-outs stand apart in the source and are kept apart here.

Key:
Format in all cases: in vivo
[1] = test system: Lindernia pyxidaria; assay: Test Example 1: herbicidal effect test by soil application in paddy rice; conditions: 336 h, 120 g active ingredient per 10 ares, applied immediately after sowing, flooded pots, 14 days after application, read-out: weed inhibition rate
Method in brief: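 Inhibition rate (%) read 14 days after treatment, duplicate pots. Water-diluted emulsifiable concentrate was applied by dropper at 120 g active ingredient/10 ares right after sowing. Seeds (30 per species, 0–1 cm deep) went into puddled paddy soil kept flooded at about 3 cm in a greenhouse.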

[2] = test system: Lindernia pyxidaria; assay: Test Example 2: herbicidal effect test by application during growth period of paddy rice; conditions: 120 g per 10 ares, applied seven days after sowing, flooded pots, 14 days after application, read-out: weed inhibition rate
Method in brief: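 Weeds sown into puddled, flooded paddy soil received a post-emergence water application of emulsifiable concentrate at 120 g active ingredient per 10 ares, seven days after sowing. Herbicidal effect was rated 14 days later as inhibition (%).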

[3] = test system: Chenopodium album; assay: Test Example 4: herbicidal effect test by stem and leaf treatment in upland field; conditions: 120 g per 10 ares, sprayed seven days after sowing, upland soil, 14 days after application, read-out: weed inhibition rate
[4] = test system: Lindernia pyxidaria; assay: Test Example 5: herbicidal effect test by soil application in paddy rice (low dose); conditions: 336 h, 7.5 g per 10 ares, applied immediately after sowing, flooded pots, 14 days after application, read-out: weed inhibition rate
Method in brief: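 Pots of puddled, fertilized paddy soil receive 30 seeds per species at 0–1 cm depth and are flooded to about 3 cm. The diluted emulsifiable concentrate is then dropped onto the water, delivering 7.5 g active ingredient per 10 ares. Greenhouse grown; herbicidal effect scored 14 days later, two replicates.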

[5] = test system: Chenopodium album; assay: Test Example 7: herbicidal effect test by soil application in upland field (low dose); conditions: 7.5 g per 10 ares, sprayed one day after sowing, 14 days after application, read-out: weed inhibition rate
Method in brief: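 Low-dose soil treatment at 7.5 g a.i. per 10 a, applied as a diluted emulsifiable concentrate sprayed onto the soil surface one day after sowing in upland alluvial loam. Duplicate pots; percent weed inhibition is read 14 days after application.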

[6] = test system: Amaranthus viridis; assay: as above; conditions: read-out: weed inhibition rate
[7] = test system: Amaranthus viridis; assay: Test Example 4: herbicidal effect test by stem and leaf treatment in upland field; conditions: 120 g per 10 ares, sprayed seven days after sowing, upland soil, 14 days after application, read-out: weed inhibition rate
Method in brief: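 Upland alluvial loam soil in pots, twenty seeds per weed species mixed into top 1 cm; seven days after sowing, emulsifiable concentrate diluted in water sprayed at 100 liters per 10 ares, active ingredient 120 g per 10 ares. Weed inhibition rate (%) scored 14 days after application, duplicate per concentration.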

[8] = test system: Chenopodium album; assay: Test Example 8: herbicidal effect test by stem and leaf treatment in upland field (low dose); conditions: 7.5 g per 10 ares, sprayed seven days after sowing, upland soil, 14 days after application, read-out: weed inhibition rate
Method in brief: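 Upland pot test in alluvial loam with duplicate pots per dose; spraying at 100 liters per 10 ares on day 7 after sowing, 7.5 g a.i. per 10 ares; percent inhibition read 14 days post-spray.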

[9] = test system: Lindernia pyxidaria; assay: Test Example 6: herbicidal effect test by application during growth period of paddy rice (low dose); conditions: 7.5 g per 10 ares, applied seven days after sowing, flooded pots, 14 days after application, read-out: weed inhibition rate
Method in brief: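 Puddled, fertilised paddy soil was sown with 30 seeds per species and flooded to about 3 cm. After 7 days in a glass greenhouse, the diluted emulsifiable concentrate went into the water by dropper at 7.5 g/10 a. Effect scored at 14 days.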

[10] = 7.5 g per 10 ares, sprayed one day after sowing, upland soil, 14 days after application

Compound: CC(C)[C@]12C[C@@H](OCc3ccccc3C#N)[C@](C)(C[C@@H]1Br)O2 [1-703, 2-[[(1S,2R,4R,5S)-5-bromo-1-methyl-4-isopropyl-7-oxabicyclo[2.2.1]heptan-2-yl]oxymethyl]benzonitrile]
- pest or weed control at 1200 g/ha [1]: ≥ 80%
- inhibition at 1200 g/ha [2]: ≥ 80%

Compound: CC(C)[C@]12C[C@@H](OCc3ccccc3F)[C@](C)(C[C@@H]1OCc1ccccc1F)O2 [1-603, (1S,2R,4R,5S)-2,5-bis[(2-fluorophenyl)methoxy]-1-methyl-4-isopropyl-7-oxabicyclo[2.2.1]heptane]
- pest or weed control at 1200 g/ha [1]: ≥ 80%
- inhibition at 1200 g/ha [3]: ≥ 80%
- inhibition at 75 g/ha [4]: ≥ 80%

Compound: Cc1ccccc1CO[C@@H]1C[C@]2(C(C)C)O[C@@]1(C)C[C@@H]2I [1-741, (1S,2R,4R,5S)-5-iodo-1-methyl-2-[(2-methylphenyl)methoxy]-4-isopropyl-7-oxabicyclo[2.2.1]heptane]
- pest or weed control at 1200 g/ha [1]: ≥ 80%
- inhibition at 75 g/ha [4]: ≥ 80%

Compound: CC(C)[C@]12C[C@@H](OCc3c(F)cccc3F)[C@](C)(C[C@@H]1F)O2 [1-7, (1S,2R,4R,5S)-2-((2,6-difluorobenzyl)oxy)-5-fluoro-4-isopropyl-1-methyl-7-oxabicyclo[2.2.1]heptane]
- pest or weed control at 1200 g/ha [1]: ≥ 80%
- inhibition at 1200 g/ha [3]: ≥ 80%
- inhibition at 75 g/ha [5]: ≥ 80%
- inhibition at 75 g/ha [6, 10]: ≥ 80%

Compound: CC(C)[C@]12C=C[C@](C)(O1)C(OCc1ccccc1F)C2 (mixture of isomers) [3-5, (1R,4S,SR)-5-[(2-fluorophenyl)methoxy]-4-methyl-1-isopropyl-7-oxabicyclo[2.2.1]hept-2-ene]
- pest or weed control at 1200 g/ha [1]: ≥ 80%
- inhibition at 1200 g/ha [7]: ≥ 80%
- inhibition at 1200 g/ha [3]: ≥ 80%
- inhibition at 75 g/ha [8]: ≥ 80%
- inhibition at 1200 g/ha [2]: ≥ 80%

Compound: Cc1ccccc1CO[C@@H]1C[C@]2(C(C)C)O[C@@]1(C)C[C@@H]2Br [1-16, (1S,2R,4R,5S)-5-bromo-1-methyl-2-[(2-methylphenyl)methoxy]-4-isopropyl-7-oxabicyclo[2.2.1]heptane]
- pest or weed control at 1200 g/ha [1]: ≥ 80%

Compound: CC(C)[C@]12C[C@@H](OCc3ccccc3F)[C@](C)(C[C@@H]1I)O2 [1-753, (1S,2R,4R,SS)-2-[(2-fluorophenyl)methoxy]-5-iodo-1-methyl-4-isopropyl-7-oxabicyclo[2.2.1]heptane]
- inhibition at 75 g/ha ([6]; soil): ≥ 80%

Compound: C=C1C[C@]2(C)O[C@@]1(C(C)C)C[C@H]2OCc1ccccc1F [2-88, (1R,4S,5R)-5-((2-fluorobenzyl)oxy)-1-isopropyl-4-methyl-2-methylene-7-oxabicyclo[2.2.1]heptane]
- pest or weed control at 1200 g/ha [1]: ≥ 80%
- inhibition at 1200 g/ha [3]: ≥ 80%
- inhibition at 75 g/ha [8]: ≥ 80%
- inhibition at 75 g/ha [5]: ≥ 80%
- inhibition at 75 g/ha [6, 10]: ≥ 80%
- inhibition at 1200 g/ha [2]: ≥ 80%

Compound: CC(C)=CCO[C@@H]1C[C@]2(C(C)C)O[C@@]1(C)C[C@@H]2Br [1-672, (1S,2R,4R,5S)-5-bromo-1-methyl-2-(3-methylbut-2-enoxy)-4-isopropyl-7-oxabicyclo[2.2.1]heptane]
- inhibition at 1200 g/ha [2]: ≥ 80%

Compound: Cc1ccccc1CO[C@@H]1C[C@@]2(C(C)C)C=C[C@]1(C)O2 [3-2, (1R,4S,5R)-4-methyl-5-[(2-methylphenyl)methoxy]-1-isopropyl-7-oxabicyclo[2.2.1]hept-2-ene]
- inhibition at 75 g/ha [6, 10]: ≥ 80%

Compound: COC1(OC)C[C@]2(C)O[C@@]1(C(C)C)C[C@H]2OCc1ccccc1F [1-935, (1R,4S,5R)-5-((2-fluorobenzyl)oxy)-1-isopropyl-2,2-dimethoxy-4-methyl-7-oxabicyclo[2.2.1]heptane]
- pest or weed control at 1200 g/ha [1]: ≥ 80%
- inhibition at 1200 g/ha [2]: ≥ 80%

Compound: CC(C)[C@]12C[C@@H](OCc3ccccc3F)[C@](C)(C/C1=N\O)O2 [2-197, (1R,4S,5R,E)-5-((2-fluorobenzyl)oxy)-1-isopropyl-4-methyl-7-oxabicyclo[2.2.1]heptan-2-one oxime]
- pest or weed control at 1200 g/ha [1]: ≥ 80%
- inhibition at 1200 g/ha [7]: ≥ 80%

Compound: CC(C)[C@]12C[C@@H](OCc3ccc(F)cc3)[C@](C)(CC1=O)O2 [2-349, (1R,4S,5R)-5-((4-fluorobenzyl)oxy)-1-isopropyl-4-methyl-7-oxabicyclo[2.2.1]heptan-2-one]
- pest or weed control at 1200 g/ha [1]: ≥ 80%
- inhibition at 1200 g/ha [7]: ≥ 80%
- inhibition at 1200 g/ha [2]: ≥ 80%

Compound: CC(C)[C@]12C[C@@H](OCc3ccccc3F)[C@](C)(C[C@@H]1F)O2 [1-5, (1R,2S,4S,5R)-2-fluoro-5-((2-fluorobenzyl)oxy)-1-isopropyl-4-methyl-7-oxabicyclo[2.2.1]heptane]
- inhibition at 1200 g/ha [3]: ≥ 80%

Compound: CC(C)[C@]12C[C@@H](OCc3c(F)cccc3F)[C@](C)(CC1=O)O2 [2-20, (1R,4S,5R)-5-((2,6-difluorobenzyl)oxy)-1-isopropyl-4-methyl-7-oxabicyclo[2.2.1]heptan-2-one]
- inhibition at 1200 g/ha [7]: ≥ 80%
- inhibition at 75 g/ha [9]: ≥ 80%
- inhibition at 1200 g/ha [2]: ≥ 80%
- inhibition at 75 g/ha [4]: ≥ 80%

Compound: Cc1ccccc1CO[C@@H]1C[C@]2(C(C)C)O[C@@]1(C)CC2C (stereo partly drawn) [1-83, (1S,2R,4R)-4-isopropyl-1,5-dimethyl-2-((2-methylbenzyl)oxy)-7-oxabicyclo[2.2.1]heptane]
- inhibition at 1200 g/ha [3]: ≥ 80%

Compound: Cc1ccccc1CO[C@@H]1C[C@]2(C(C)C)O[C@@]1(C)CC2=O [2-3, (1R,4S,5R)-1-isopropyl-4-methyl-5-((2-methylbenzyl)oxy)-7-oxabicyclo[2.2.1]heptan-2-one]
- pest or weed control at 1200 g/ha [1]: ≥ 80%
- inhibition at 1200 g/ha [3]: ≥ 80%
- inhibition at 1200 g/ha [2]: ≥ 80%

Compound: Cc1cccc(C)c1CO[C@@H]1C[C@]2(C(C)C)O[C@@]1(C)CC2=O [2-5, (1R,4S,5R)-5-((2,6-dimethylbenzyl)oxy)-1-isopropyl-4-methyl-7-oxabicyclo[2.2.1]heptan-2-one]
- pest or weed control at 1200 g/ha [1]: ≥ 80%
- inhibition at 1200 g/ha [2]: ≥ 80%
- inhibition at 75 g/ha [4]: ≥ 80%

Compound: CC(C)[C@]12C[C@@H](OCc3cccc(F)c3)[C@](C)(CC1=O)O2 [2-351, (1R,4S,5R)-5-((3-fluorobenzyl)oxy)-1-isopropyl-4-methyl-7-oxabicyclo[2.2.1]heptan-2-one]
- pest or weed control at 1200 g/ha [1]: ≥ 80%
- inhibition at 1200 g/ha [3]: ≥ 80%
- inhibition at 1200 g/ha [2]: ≥ 80%

Compound: CC(C)[C@]12C[C@@H](OCc3ccccc3F)[C@](C)(CC1C)O2 (stereo partly drawn) [1-92, (1S,2R,4R)-2-((2-fluorobenzyl)oxy)-4-isopropyl-1,5-dimethyl-7-oxabicyclo[2.2.1]heptane]
- inhibition at 1200 g/ha [7]: ≥ 80%
- inhibition at 1200 g/ha [3]: ≥ 80%
- inhibition at 75 g/ha [8]: ≥ 80%

Compound: CC(C)[C@]12C[C@@H](OCc3ccccc3Cl)[C@](C)(CC1=O)O2 [2-11, (1R,4S,5R)-5-((2-chlorobenzyl)oxy)-1-isopropyl-4-methyl-7-oxabicyclo[2.2.1]heptan-2-one]
- inhibition at 1200 g/ha [2]: ≥ 80%

Compound: Cc1ccccc1CO[C@@H]1C[C@]2(C(C)C)O[C@@]1(C)C/C2=N\O [2-191, (1R,4S,5R,E)-1-isopropyl-4-methyl-5-((2-methylbenzyl)oxy)-7-oxabicyclo[2.2.1]heptan-2-one oxime]
- inhibition at 1200 g/ha [7]: ≥ 80%

Compound: CC(C)[C@]12C[C@@H](OCc3ccccc3Br)[C@](C)(C[C@@H]1Br)O2 [1-694, (1S,2R,4R,5S)-5-bromo-2-[(2-bromophenyl)methoxy]-1-methyl-4-isopropyl-7-oxabicyclo[2.2.1]heptane]
- inhibition at 75 g/ha [6, 10]: ≥ 80%

Compound: C=C1C[C@]2(C)O[C@@]1(C(C)C)C[C@H]2OCc1ccccc1C [2-72, (1R,4S,5R)-1-isopropyl-4-methyl-5-((2-methylbenzyl)oxy)-2-methylene-7-oxabicyclo[2.2.1]heptane]
- pest or weed control at 1200 g/ha [1]: ≥ 80%
- inhibition at 1200 g/ha [3]: ≥ 80%
- inhibition at 75 g/ha [8]: ≥ 80%
- inhibition at 75 g/ha [5]: ≥ 80%
- inhibition at 75 g/ha [6, 10]: ≥ 80%
- inhibition at 1200 g/ha [2]: ≥ 80%

Compound: CC(C)[C@]12C[C@@H](OCc3ccccc3F)[C@](C)(C[C@@H]1Br)O2 [1-19, (1S,2R,4R,5S)-5-bromo-2-[(2-fluorophenyl)methoxy]-1-methyl-4-isopropyl-7-oxabicyclo[2.2.1]heptane]
- pest or weed control at 1200 g/ha [1]: ≥ 80%
- inhibition at 1200 g/ha [3]: ≥ 80%
- inhibition at 1200 g/ha [2]: ≥ 80%
